Tested on: 885724-159-R-J1-PDC complex spheroid viability
Assay: Anticancer human tumor 885724-159-R-J1-PDC patient-derived pancreatic adenocarcinoma cell line growth inhibition [POLQ]
Details: for IC50: curve of first compound; for viability, T/C: stronger effect = lower value; active = viability on the fitted dose curve at most 10% of control; inactive = the rest
Procedure, shortened: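 Complex spheroid viability model combining PDC tumour cells with endothelial (HUVEC) and MSC stromal cells. Novobiocin, ART-558 or RP6685 were tested singly and in combination with standard and investigational anticancer drugs. Each was titrated in half-log steps from near clinical Cmax, or from 10 microM where Cmax was unknown.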

[1] = second compound 0.0316 µM, first compound 0.0316 µM
[2] = second compound 0.0316 µM, first compound 0.1 µM
[3] = second compound 0.0316 µM, first compound 0.316 µM
[4] = second compound 0.0316 µM, first compound 1 µM
[5] = second compound 0.0316 µM, first compound 3.16 µM
[6] = second compound 0.0316 µM, first compound 10 µM
[7] = second compound 0.1 µM, first compound 0.0316 µM
[8] = second compound 0.1 µM, first compound 0.1 µM
[9] = second compound 0.1 µM, first compound 0.316 µM
[10] = second compound 0.1 µM, first compound 1 µM
[11] = second compound 0.1 µM, first compound 3.16 µM
[12] = second compound 0.1 µM, first compound 10 µM
[13] = second compound 0.316 µM, first compound 0.0316 µM
[14] = second compound 0.316 µM, first compound 0.1 µM
[15] = second compound 0.316 µM, first compound 0.316 µM
[16] = second compound 0.316 µM, first compound 1 µM
[17] = second compound 0.316 µM, first compound 3.16 µM
[18] = second compound 0.316 µM, first compound 10 µM
[19] = second compound 1 µM, first compound 0.0316 µM
[20] = second compound 1 µM, first compound 0.1 µM
[21] = second compound 1 µM, first compound 0.316 µM
[22] = second compound 1 µM, first compound 1 µM
[23] = second compound 1 µM, first compound 3.16 µM
[24] = second compound 1 µM, first compound 10 µM
[25] = second compound 3.16 µM, first compound 0.0316 µM
[26] = second compound 3.16 µM, first compound 0.1 µM
[27] = second compound 3.16 µM, first compound 0.316 µM
[28] = second compound 3.16 µM, first compound 1 µM
[29] = second compound 3.16 µM, first compound 3.16 µM
[30] = second compound 3.16 µM, first compound 10 µM
[31] = second compound 10 µM, first compound 0.0316 µM
[32] = second compound 10 µM, first compound 0.1 µM
[33] = second compound 10 µM, first compound 0.316 µM
[34] = second compound 10 µM, first compound 1 µM
[35] = second compound 10 µM, first compound 3.16 µM
[36] = second compound 10 µM, first compound 10 µM
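Also: spheroids exposed to compounds for 7 days.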

CC1COCCN1c1cc(C2(O)CC3CCC(C2)O3)c2cnn(-c3ccn[nH]3)c2n1 (stereo not drawn) + Cc1cccc(N(C)C(=O)C2C(O)CCN2c2nc(C)cc(C(F)(F)F)c2C#N)c1
0.188 µM: IC50 (second compound 1 µM)
0.243 µM: IC50 (second compound 0.1 µM)
0.142 µM: IC50 (second compound 0.0316 µM)
0.302 µM: IC50 (second compound 3.16 µM)
inactive: viability, T/C [1] 74.4% | viability, T/C [2] 51.4% | viability, T/C [3] 41.6% | viability, T/C [4] 39.6% | viability, T/C [5] 35.4% | viability, T/C [6] 28.5% | viability, T/C [7] 72% | viability, T/C [8] 58.1% | viability, T/C [9] 47.6% | viability, T/C [10] 39.3% | viability, T/C [11] 35.4% | viability, T/C [12] 30.8% | viability, T/C [13] 70.4% | viability, T/C [14] 46.9% | viability, T/C [15] 47.2% | viability, T/C [16] 41% | viability, T/C [17] 35.3% | viability, T/C [18] 28.8% | viability, T/C [19] 77.3% | viability, T/C [20] 56.7% | viability, T/C [21] 41.4% | viability, T/C [22] 40% | viability, T/C [23] 33.2% | viability, T/C [24] 27.1% | viability, T/C [25] 68.8% | viability, T/C [26] 55.8% | viability, T/C [27] 49.4% | viability, T/C [28] 43.2% | viability, T/C [29] 36.5% | viability, T/C [30] 29.2% | viability, T/C [31] 70.6% | viability, T/C [32] 54.2% | viability, T/C [33] 48.8% | viability, T/C [34] 38.1% | viability, T/C [35] 36% | viability, T/C [36] 29%
0.151 µM: IC50 (second compound 0.316 µM)
0.225 µM: IC50 (second compound 10 µM)

CC(=O)O[C@H]1C(=O)[C@@]2(C)[C@H]([C@H](OC(=O)c3ccccc3)[C@]3(O)C[C@H](OC(=O)[C@H](O)[C@@H](NC(=O)c4ccccc4)c4ccccc4)C(C)=C1C3(C)C)[C@]1(OC(C)=O)CO[C@@H]1C[C@@H]2O + Nc1ccc(C#CCN(C(=O)Cc2ncc(C(F)(F)F)cc2C(F)(F)F)c2ccc(F)cc2)nn1
inactive: viability, T/C (second compound 0.0316 µM, first compound 0.00949 µM) 65.9% | viability, T/C (second compound 0.0316 µM, first compound 0.03 µM) 59.9% | viability, T/C (second compound 0.0316 µM, first compound 0.0949 µM) 56.6% | viability, T/C (second compound 0.0316 µM, first compound 0.3 µM) 64.7% | viability, T/C (second compound 0.0316 µM, first compound 0.949 µM) 62.5% | viability, T/C (second compound 0.0316 µM, first compound 3 µM) 70.3% | viability, T/C (second compound 0.1 µM, first compound 0.00949 µM) 69.9% | viability, T/C (second compound 0.1 µM, first compound 0.03 µM) 61.7% | viability, T/C (second compound 0.1 µM, first compound 0.0949 µM) 62.5% | viability, T/C (second compound 0.1 µM, first compound 0.3 µM) 69.1% | viability, T/C (second compound 0.1 µM, first compound 0.949 µM) 70% | viability, T/C (second compound 0.1 µM, first compound 3 µM) 68.9% | viability, T/C (second compound 0.316 µM, first compound 0.00949 µM) 71.8% | viability, T/C (second compound 0.316 µM, first compound 0.03 µM) 60.4% | viability, T/C (second compound 0.316 µM, first compound 0.0949 µM) 68% | viability, T/C (second compound 0.316 µM, first compound 0.3 µM) 58.1% | viability, T/C (second compound 0.316 µM, first compound 0.949 µM) 71.2% | viability, T/C (second compound 0.316 µM, first compound 3 µM) 74% | viability, T/C (second compound 1 µM, first compound 0.00949 µM) 63.4% | viability, T/C (second compound 1 µM, first compound 0.03 µM) 61.5% | viability, T/C (second compound 1 µM, first compound 0.0949 µM) 58.6% | viability, T/C (second compound 1 µM, first compound 0.3 µM) 63% | viability, T/C (second compound 1 µM, first compound 0.949 µM) 70.2% | viability, T/C (second compound 1 µM, first compound 3 µM) 69.5% | viability, T/C (second compound 3.16 µM, first compound 0.00949 µM) 64.8% | viability, T/C (second compound 3.16 µM, first compound 0.03 µM) 66.5% | viability, T/C (second compound 3.16 µM, first compound 0.0949 µM) 61.9% | viability, T/C (second compound 3.16 µM, first compound 0.3 µM) 60% | viability, T/C (second compound 3.16 µM, first compound 0.949 µM) 68.3% | viability, T/C (second compound 3.16 µM, first compound 3 µM) 75% | viability, T/C (second compound 10 µM, first compound 0.00949 µM) 67.4% | viability, T/C (second compound 10 µM, first compound 0.03 µM) 59.2% | viability, T/C (second compound 10 µM, first compound 0.0949 µM) 66.2% | viability, T/C (second compound 10 µM, first compound 0.3 µM) 70% | viability, T/C (second compound 10 µM, first compound 0.949 µM) 75.3% | viability, T/C (second compound 10 µM, first compound 3 µM) 71.8%
> 3 µM: IC50 (second compound 0.0316 µM) | IC50 (second compound 0.1 µM) | IC50 (second compound 0.316 µM) | IC50 (second compound 1 µM) | IC50 (second compound 3.16 µM) | IC50 (second compound 10 µM)

COc1cc(C2c3cc4c(cc3C(OC3OC5COC(C)OC5C(O)C3O)C3COC(=O)C23)OCO4)cc(OC)c1O (stereo not drawn) + Nc1ccc(C#CCN(C(=O)Cc2ncc(C(F)(F)F)cc2C(F)(F)F)c2ccc(F)cc2)nn1
inactive: viability, T/C [1] 107% | viability, T/C [2] 86.6% | viability, T/C [3] 87.4% | viability, T/C [4] 71% | viability, T/C [5] 57.8% | viability, T/C [6] 55% | viability, T/C [7] 104% | viability, T/C [8] 89.4% | viability, T/C [9] 82.2% | viability, T/C [10] 69.4% | viability, T/C [11] 61.1% | viability, T/C [12] 53.2% | viability, T/C [13] 103% | viability, T/C [14] 87.2% | viability, T/C [15] 76.1% | viability, T/C [16] 66.3% | viability, T/C [17] 58.2% | viability, T/C [18] 50.6% | viability, T/C [19] 89.7% | viability, T/C [20] 85.7% | viability, T/C [21] 76.9% | viability, T/C [22] 69.6% | viability, T/C [23] 53.9% | viability, T/C [24] 53.5% | viability, T/C [25] 87.8% | viability, T/C [26] 87.9% | viability, T/C [27] 82.6% | viability, T/C [28] 81% | viability, T/C [29] 56.1% | viability, T/C [30] 50.9% | viability, T/C [31] 95.1% | viability, T/C [32] 94.3% | viability, T/C [33] 82.4% | viability, T/C [34] 74.1% | viability, T/C [35] 62.8% | viability, T/C [36] 52.4%
> 10 µM: IC50 (second compound 0.0316 µM) | IC50 (second compound 0.1 µM) | IC50 (second compound 0.316 µM) | IC50 (second compound 1 µM) | IC50 (second compound 3.16 µM) | IC50 (second compound 10 µM)

COc1cccc2c1C(=O)c1c(O)c3c(c(O)c1C2=O)CC(O)(C(=O)CO)CC3OC1CC(N)C(O)C(C)O1 (stereo not drawn) + Nc1ccc(C#CCN(C(=O)Cc2ncc(C(F)(F)F)cc2C(F)(F)F)c2ccc(F)cc2)nn1
0.163 µM: IC50 (second compound 3.16 µM)
0.15 µM: IC50 (second compound 0.316 µM)
0.168 µM: IC50 (second compound 10 µM)
0.198 µM: IC50 (second compound 0.1 µM)
0.158 µM: IC50 (second compound 0.0316 µM)
inactive: viability, T/C [1] 66.2% | viability, T/C [2] 61% | viability, T/C [3] 34% | viability, T/C [4] 13.8% | viability, T/C [7] 75.9% | viability, T/C [8] 64.5% | viability, T/C [9] 40.4% | viability, T/C [10] 12.2% | viability, T/C [13] 72.5% | viability, T/C [14] 55.7% | viability, T/C [15] 37.7% | viability, T/C [16] 14.6% | viability, T/C [19] 76.7% | viability, T/C [20] 60.8% | viability, T/C [21] 38.1% | viability, T/C [22] 10.1% | viability, T/C [25] 74.9% | viability, T/C [26] 60.6% | viability, T/C [27] 35.2% | viability, T/C [28] 12.9% | viability, T/C [31] 70.8% | viability, T/C [32] 61.1% | viability, T/C [33] 36.1% | viability, T/C [34] 11.3%
0.173 µM: IC50 (second compound 1 µM)
active: viability, T/C [5] 5.73% | viability, T/C [6] 6.16% | viability, T/C [11] 6.2% | viability, T/C [12] 6.34% | viability, T/C [17] 5.39% | viability, T/C [18] 7.18% | viability, T/C [23] 6.54% | viability, T/C [24] 7.34% | viability, T/C [29] 5.75% | viability, T/C [30] 7.58% | viability, T/C [35] 5.42% | viability, T/C [36] 5.67%

From PubChem BioAssay AID1963832 (Molecular Pharmacology Branch, DTP, NCI, 2024)
